The text below walks through data of US6211212A, “Pyrrolidine and thiazole derivatives with metallo-beta-lactamase inhibitory properties” (SmithKline Beecham p.l.c., priority 1997, dated 2001).

This test has as its target B.fragilis CfiA metallo-β-lactamase (Bacteroides fragilis, UniProt P25910). Nature of the test: I50 screen (nitrocefin reporter substrate). Format: biochemical. The following applies: 25 μM PIPES pH 7, 37° C., nitrocefin 91 μM, 5 minute preincubation, Zn2+ 100 μM. As to the method:
The inhibitory activity of the compounds of the invention was measured in 25 μM PIPES pH 7 buffer at 10 concentrations (1000, 333, 111, 37, 12.3, 4.1, 1.4, 0.46, 0.15 and 0.05 μM) at 37° C. using nitrocefin (91 μM final concentration) as the reporter substrate. The assays were performed with a 5 minute preincubation of enzyme and inhibitor and were conducted in the presence of added zinc sulphate (Zn^2+ 100 μM, final concentration). The methodology is described in detail in the following references: Payne et al (1991), J. Antimicrob. Chemother., 28:255; Payne et al (1994), Antimicrob. Agents and Chemother., 38:767.

Sequence of B.fragilis CfiA metallo-β-lactamase (P25910 19-249): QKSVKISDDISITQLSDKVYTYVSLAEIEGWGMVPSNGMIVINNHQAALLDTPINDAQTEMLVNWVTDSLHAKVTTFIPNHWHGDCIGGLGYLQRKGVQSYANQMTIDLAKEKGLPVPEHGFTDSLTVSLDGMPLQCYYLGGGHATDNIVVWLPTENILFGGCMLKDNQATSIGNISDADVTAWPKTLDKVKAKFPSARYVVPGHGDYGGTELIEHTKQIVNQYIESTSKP

On to `O=C(N[C@@H](C(=O)O)c1ccccc1)[C@H]1CCCC[C@H]1S` (mixture of isomers) [Example E3, N-[2-(R,S)-Mercapto-1-(R,S)-cyclohexancarbonyl]-D-phenylglycine], for which the IC50 is less than 1 µM.

What is called IC50 is the point on the concentration scale where inhibition reaches its midpoint. Read a low IC50 as greater potency.
